Experimental data reported in PMC7765500, “Siderophore Scaffold as Carrier for Antifungal Peptides in Therapy of Aspergillus fumigatus Infections” (Journal of Fungi, 2020).
≈ marks a conversion by molar mass, not a printed value. Read-outs that look alike come from different tables or passages of the source. Square brackets hold non-standard residues; d marks the D form. Ends that are not written are not given here. Peptide text beside a SMILES is read from it.

Tests used:
[1] = type: physicochemical; details: pH 7.4
Procedure: Aliquots of 50 µL of ^68Ga-labelled conjugate (~5 µM) were added to 450 µL of phosphate-buffered saline pH 7.4 (PBS) and 500 µL of Octanol into a 1.5 mL Eppendorf tube. The mixture was vigorously shaken for 20 min at 1400 rpm in a standard vortex (MS 3, IKA, Staufen, Germany) and hereafter, 200 µL of each phase removed and measured in a gamma counter (2480 automatic gamma counter Wizard2 3’’, Perkin Elmer, Waltham, MA, USA) LogD was calculated as the ratio of octanol/water phase using Excel. (n = 3, six technical replicates)

[2] = tested on: A. fumigatus; test: Uptake assay of 68Ga-labelled conjugates in A. fumigatus; type: cell-based, Aspergillus fumigatus; details: iron-depleted AMM, 45 min, 37 °C
Procedure: Assays were performed as previously described. Briefly, uptake and competition assays were performed with A. fumigatus in iron-depleted and iron-replete Aspergillus minimal media (AMM), using a 96-well MultiScreen Filter Plates HTS (1 μm glass fiber filter, Merck Millipore, Darmstadt, Germany). Compounds were incubated for 45 min at 37 °C and filters measured in a gamma counter. Competition assays were performed in the same way except for pre-incubation with the iron-containing antifungal conjugates for 15 min, resulting in a competition at the MirB transporter to show specific binding to MirB.

[3] = tested on: A. fumigatus (ATCC 46645); type: cell-based, Aspergillus fumigatus; details: for Antifungal activity lacking up to: medium and time not given
Procedure: (§1) Susceptibility tests were performed according to CLSI guidelines with slight modifications. In brief, 96-well plates (Greiner Bio-One GmbH) were prepared with 100 μL of 2 × AMM (Aspergillus minimal medium) or 0.2 × Potato Dextrose Broth (PDB) containing 3 × 10^4 spores of A. fumigatus (ATCC 46645) per well. An amount of 100μL antifungal, dissolved in water, was added to get a final concentration of 1 × AMM/0.1 × PDB medium and antifungal concentration ranging from 0.031–16 μg/mL.

[4] = tested on: A. fumigatus mutant strain ΔsidA/ΔftrA; test: Growth promotion assay; type: cell-based, Aspergillus fumigatus; details: 72 h, 37 °C; for Concentration of sporulation / Concentration of growth induction / utilization: iron-depleted AMM, 0.1–50 µM tested; for Growth promotion (in words): visually assessed
Description: To assess the capability of A. fumigatus to utilize the modified siderophores, a mutant strain (ΔsidA/ΔftrA) that lacks the genes sidA and ftrA was used. These mutations impair both siderophore-mediated iron acquisition and reductive iron assimilation, in other words, high-affinity iron acquisition. If the activity of externally supplied siderophore was still intact, similar growth to [Fe]TAFC should be observed, however, in the case of growth reduction, it cannot be distinguished from antifungal activity. Spores (10^4) were point inoculated on solid 0.5 mL of AMM [26] in 24-well plates containing increasing concentrations of iron labelled siderophore ranging from 0.1–50 μM. Plates were incubated for 72 h at 37 °C in a humidity chamber and visually assessed.

[5] = tested on: A. fumigatus (ATCC 46645); type: cell-based, Aspergillus fumigatus
Procedure: as §1

[6] = cited from earlier work

## CC(=O)N[C@@H]1CCCN(O)C(=O)/C=C(/C)CCOC(=O)[C@H](NC(=O)CCC(=O)N[C@@H](CCCNC(=N)N)C(=O)N[C@@H](CCCCN)C(=O)N[C@@H](CCCCN)C(=O)N[C@@H](Cc2c[nH]c3ccccc23)C(=O)N[C@@H](Cc2ccccc2)C(=O)N[C@@H](Cc2c[nH]c3ccccc23)C(N)=O)CCCN(O)C(=O)/C=C(/C)CCOC(=O)[C@H](NC(C)=O)CCCN(O)C(=O)/C=C(/C)CCOC1=O [[^68Ga]Ga-DAFC-L-PAF26, metal not drawn]
[1]
  logD: -3.13 ± 0.02
[2]
  Uptake into A. fumigatus hyphae normalized to uptake of [68Ga]Ga-TAFC: 90%

## RKKWFW [HOOC-L-PAF26-NH2]
[3]; AMM, 37 °C, 24 h
  MIC 24 h: >16 µg/mL
[3]; AMM, 37 °C
  MIC 48 h: >16 µg/mL
[3]; ATCC 46645, 24 h
  MIC 24 h: >16.8 µM

## CC(=O)NC1CCCN(O)C(=O)/C=C(/C)CCOC(=O)C(NC(=O)[C@@H](Cc2ccccc2)NC(=O)[C@H](CC(C)C)NC(=O)[C@H](CC(N)=O)NC(C)=O)CCCN(O)C(=O)/C=C(/C)CCOC(=O)C(NC(C)=O)CCCN(O)C(=O)/C=C(/C)CCOC1=O (some centres unmarked) [[Fe]DAFC-NLF-Ac]
[4]
  Concentration of sporulation: 50 µM
[3]; AMM, 37 °C, 24 h
  MIC 24 h: >16 µg/mL
[3]; AMM, 37 °C
  MIC 48 h: >16 µg/mL
[3]; ATCC 46645, 24 h
  MIC 24 h: >12.5 µM
[3]
  Antifungal activity lacking up to: > 16 µg/mL

## CC(=O)N[C@H](CCCNC(=N)N)C(=O)N[C@H](CCCCN)C(=O)N[C@H](CCCCN)C(=O)N[C@H](Cc1c[nH]c2ccccc12)C(=O)N[C@H](Cc1ccccc1)C(=O)N[C@H](Cc1c[nH]c2ccccc12)C(N)=O [PAF26, Ac-dArg-dLys-dLys-dTrp-dPhe-dTrp-NH2, reference compound] (Ac-[dR][dK][dK][dW][dF][dW]-NH2)
[5]; 0.1 × PDB, incubation time not given
  MIC / growth inhibition: 8 µg/mL (≈ 8.07 µM)

## H-Asn-Leu-[dF]-OH [NLF]
[3]; AMM, 0.031–16 µg/mL tested
  Antifungal activity (in words): lacked antifungal potential

## CC(=O)NC1CCCN(O)C(=O)/C=C(/C)CCOC(=O)C(NC(=O)CCC(=O)N[C@H](CCCNC(=N)N)C(=O)N[C@H](CCCCN)C(=O)N[C@H](CCCCN)C(=O)N[C@H](Cc2c[nH]c3ccccc23)C(=O)N[C@H](Cc2ccccc2)C(=O)N[C@H](Cc2c[nH]c3ccccc23)C(N)=O)CCCN(O)C(=O)/C=C(/C)CCOC(=O)C(NC(C)=O)CCCN(O)C(=O)/C=C(/C)CCOC1=O (stereo partly drawn) [[Fe]DAFC-D-PAF26]
[4]
  Growth promotion (in words): low hyphal growth without sporulation
[3]; AMM, 37 °C, 24 h
  MIC 24 h: >16 µg/mL
[3]; AMM, 37 °C
  MIC 48 h: >16 µg/mL
[3]; ATCC 46645, 24 h
  MIC 24 h: >8.4 µM
[5]; 0.1 × PDB, 37 °C, 24 h
  MIC 24 h: >16 µg/mL
[5]; 0.1 × PDB, 37 °C
  MIC 48 h: >16 µg/mL
[5]; ATCC 46645, 24 h
  MIC 24 h: >8.4 µM

## CC(=O)N[C@H](CCCNC(=N)N)C(=O)N[C@H](CCCCN)C(=O)N[C@H](CCCCN)C(=O)N[C@H](Cc1c[nH]c2ccccc12)C(=O)N[C@H](Cc1ccccc1)C(=O)N[C@H](Cc1c[nH]c2ccccc12)C(N)=O [H2N-D-PAF26-Ac] (Ac-[dR][dK][dK][dW][dF][dW]-NH2)
[3]; AMM, 37 °C, 24 h
  MIC 24 h: >16 µg/mL
[3]; AMM, 37 °C
  MIC 48 h: >16 µg/mL
[3]; ATCC 46645, 24 h
  MIC 24 h: >16.1 µM
[5]; 0.1 × PDB, 37 °C, 24 h
  MIC 24 h: 16 µg/mL
[5]; 0.1 × PDB, 37 °C
  MIC 48 h: >16 µg/mL

## triacetylfusarinine C [[^68Ga]Ga-TAFC]
[6]; BALB/c mice, 30 min, blood
  Biodistribution Blood 30 min: 1.60 ± 0.37 %ID/g
[6]; BALB/c mice, 30 min, femur
  Biodistribution Femur 30 min: 0.51 ± 0.79 %ID/g
[6]; BALB/c mice, 30 min, heart
  Biodistribution Heart 30 min: 0.67 ± 0.16 %ID/g
[6]; BALB/c mice, 30 min, intestine
  Biodistribution Intestine 30 min: 1.71 ± 10.04 %ID/g
[6]; BALB/c mice, 30 min, kidneys
  Biodistribution Kidneys 30 min: 5.51 ± 1.22 %ID/g
[6]; BALB/c mice, 30 min, liver
  Biodistribution Liver 30 min: 0.70 ± 0.04 %ID/g
[6]; BALB/c mice, 30 min, lung
  Biodistribution Lung 30 min: 1.54 ± 0.27 %ID/g
[6]; BALB/c mice, 30 min, muscle
  Biodistribution Muscle 30 min: 0.52 ± 0.25 %ID/g
[6]; BALB/c mice, 30 min, pancreas
  Biodistribution Pancreas 30 min: 0.42 ± 0.16 %ID/g
[6]; BALB/c mice, 30 min, spleen
  Biodistribution Spleen 30 min: 0.38 ± 0.11 %ID/g
[6]; BALB/c mice, 30 min, stomach
  Biodistribution Stomach 30 min: 0.77 ± 0.22 %ID/g
[6]; BALB/c mice, 90 min, blood
  Biodistribution Blood 90 min: 0.06 ± 0.04 %ID/g
[6]; BALB/c mice, 90 min, femur
  Biodistribution Femur 90 min: 0.15 ± 0.20 %ID/g
[6]; BALB/c mice, 90 min, heart
  Biodistribution Heart 90 min: 0.03 ± 0.01 %ID/g
[6]; BALB/c mice, 90 min, intestine
  Biodistribution Intestine 90 min: 1.03 ± 0.26 %ID/g
[6]; BALB/c mice, 90 min, kidneys
  Biodistribution Kidneys 90 min: 1.27 ± 0.39 %ID/g
[6]; BALB/c mice, 90 min, liver
  Biodistribution Liver 90 min: 0.15 ± 0.09 %ID/g
[6]; BALB/c mice, 90 min, lung
  Biodistribution Lung 90 min: 0.10 ± 0.03 %ID/g
[6]; BALB/c mice, 90 min, muscle
  Biodistribution Muscle 90 min: 0.03 ± 0.01 %ID/g
[6]; BALB/c mice, 90 min, pancreas
  Biodistribution Pancreas 90 min: 0.04 ± 0.01 %ID/g
[6]; BALB/c mice, 90 min, spleen
  Biodistribution Spleen 90 min: 0.05 ± 0.02 %ID/g
[6]; BALB/c mice, 90 min, stomach
  Biodistribution Stomach 90 min: 0.06 ± 0.02 %ID/g
[6]
  Metabolites on excretion through the urinary tract (in words): no metabolites detected

## CC(=O)N[C@@H](CC(N)=O)C(=O)N[C@@H](CC(C)C)C(=O)N[C@H](Cc1ccccc1)C(=O)O [HOOC-NLF-Ac] (Ac-Asn-Leu-[dF]-OH)
[3]; AMM, 37 °C, 24 h
  MIC 24 h: >16 µg/mL
[3]; AMM, 37 °C
  MIC 48 h: >16 µg/mL
[3]; ATCC 46645, 24 h
  MIC 24 h: >36.8 µM

## CC(=O)NC1CCCN(O)C(=O)/C=C(/C)CCOC(=O)C(NC(=O)CCC(=O)N[C@@H](CCCNC(=N)N)C(=O)N[C@@H](CCCCN)C(=O)N[C@@H](CCCCN)C(=O)N[C@@H](Cc2c[nH]c3ccccc23)C(=O)N[C@@H](Cc2ccccc2)C(=O)N[C@@H](Cc2c[nH]c3ccccc23)C(N)=O)CCCN(O)C(=O)/C=C(/C)CCOC(=O)C(NC(C)=O)CCCN(O)C(=O)/C=C(/C)CCOC1=O (stereo partly drawn) [[Fe]DAFC-L-PAF26]
[4]
  Growth promotion (in words): low hyphal growth without sporulation
[3]; AMM, 37 °C, 24 h
  MIC 24 h: >16 µg/mL
[3]; AMM, 37 °C
  MIC 48 h: >16 µg/mL
[3]; ATCC 46645, 24 h
  MIC 24 h: >8.4 µM

## CC(=O)NC1CCCN(O)C(=O)/C=C(/C)CCOC(=O)C(NC(=O)CCC(=O)N[C@@H](CC(N)=O)C(=O)N[C@@H](CC(C)C)C(=O)N[C@H](Cc2ccccc2)C(=O)O)CCCN(O)C(=O)/C=C(/C)CCOC(=O)C(NC(C)=O)CCCN(O)C(=O)/C=C(/C)CCOC1=O (some centres unmarked) [[Fe]DAFC-succ-NLF]
[4]
  Concentration of growth induction / utilization: 10 to 50 µM
  Growth promotion (in words): very low growth promotion
[3]; AMM, 37 °C, 24 h
  MIC 24 h: >16 µg/mL
[3]; AMM, 37 °C
  MIC 48 h: >16 µg/mL
[3]; ATCC 46645, 24 h
  MIC 24 h: >12.0 µM
[3]
  Antifungal activity lacking up to: > 16 µg/mL

## triacetylfusarinine C [[Fe]TAFC, reference compound]
[4]
  Concentration of growth induction / utilization: 0.1 µM
  Concentration of sporulation: 10 µM
